*1 amine or outer side, *2 acyl side, *3 side chain or, on linkers, in order; H or OH if unused. Where a SMILES comes first, the peptide text is derived from it. Bridges are numbered along the chain shown (N, C = ends). [ ]: non-standard residue; d: D form. αMeAla(3-pyridyl) = C[C@](N)(Cc1cccnc1)C(=O)O; X10 = C[C@@](Cc1ccc(F)cc1)(N[*:1])C(=O)[*:2]; Trp(1-Me) = Cn1cc(C[C@H](N)C(=O)O)c2ccccc21; Phe(3,4-Me2) = Cc1ccc(C[C@H](N)C(=O)O)cc1C; Phe(4-Cl) = N[C@@H](Cc1ccc(Cl)cc1)C(=O)O; αMeW = C[C@](N)(Cc1c[nH]c2ccccc12)C(=O)O; 2Nal = N[C@@H](Cc1ccc2ccccc2c1)C(=O)O; AEF = NCCOc1ccc(C[C@H](N)C(=O)O)cc1; X1 = O=C(Cc1ccc(CN[*:1])cc1)[*:2]; αMeR = C[C@](N)(CCCNC(=N)N)C(=O)O; αMeL = CC(C)C[C@](C)(N)C(=O)O; CH2COCH2 = O=C(C[*:1])C[*:2]; αMeV = CC(C)[C@](C)(N)C(=O)O; 3Amb = NCc1cccc(C(=O)O)c1; Dab = NCC[C@H](N)C(=O)O
Legend:
[1] = Peptide stability in simulated intestinal fluid (SIF); format: in vitro ADME; details: pig, Table 3-2, porcine pancreatin, pH 6.8, 37° C., 10 μM; for remaining at 1 h, 10 μM: read-out: SIF (% remaining 1 h); for remaining at 4 h, 10 μM: read-out: SIF (% remaining 4 h)
Protocol: (§1) Determination of Peptide Stability in Simulated Gastric Fluid (SGF) and Simulated Intestinal Fluid (SIF)
(§2) SGF was prepared by dissolving sodium chloride (0.2 g) in 50 mL of water. A volume of 0.7 mL of 10 M HCl was added to adjust the pH of the solution to 1.2 and the volume made up to 100 mL with water. […] SIF was prepared by dissolving monobasic potassium phosphate (0.68 g) in 50 mL of water and adjusting the pH to 6.8 with 1 M NaOH. The volume was subsequently made up to 100 mL with water. 200 mg porcine pancreatin (P1625, Sigma Aldrich) was gently dissolved into 20 mL preheated (37° C.) solution (10 g/L) immediately prior to the incubation.
(§3) The incubation was performed at 37° C. with gentle shaking. […] After the last timepoint, the sampling plate was mixed for 10 min on a shaking table and centrifuged 10 min at 2200 g. 70 μL resulting supernatant was diluted with 150 μL water, mixed and centrifugated before analysis by liquid chromatography high resolution mass spectrometry. […] Percent remaining at each timepoint was calculated relative to timepoint zero based on absolute peak areas.

[2] = Peptide stability in simulated gastric fluid (SGF); format: in vitro ADME; details: Table 3-3, porcine pepsin, pH 1.2, 37° C., 10 μM; for remaining at 1 h, 10 μM / remaining at 4 h, 10 μM: pig; for remaining at 1 h, 10 μM: read-out: SGF (% remaining 1 h); for remaining at 4 h, 10 μM: read-out: SGF (% remaining 4 h)
Protocol: as §1, §2, §3

[3] = molecular target: T1, human IL-23R (Homo sapiens, UniProt Q5VWK5); test: Binding assay (NanoBRET displacement of fluorophore-labelled reference compound) for estimating binding affinity to human IL-23R; details: Table 3-1; read-out: Ki hIL-23R
T1 construct: UniProtKB—Q5VWK5, amino acids 22-629; secretion signal of the plasmid (Promega N1371); expressed in transfected cells
T1 sequence (Q5VWK5 22-629): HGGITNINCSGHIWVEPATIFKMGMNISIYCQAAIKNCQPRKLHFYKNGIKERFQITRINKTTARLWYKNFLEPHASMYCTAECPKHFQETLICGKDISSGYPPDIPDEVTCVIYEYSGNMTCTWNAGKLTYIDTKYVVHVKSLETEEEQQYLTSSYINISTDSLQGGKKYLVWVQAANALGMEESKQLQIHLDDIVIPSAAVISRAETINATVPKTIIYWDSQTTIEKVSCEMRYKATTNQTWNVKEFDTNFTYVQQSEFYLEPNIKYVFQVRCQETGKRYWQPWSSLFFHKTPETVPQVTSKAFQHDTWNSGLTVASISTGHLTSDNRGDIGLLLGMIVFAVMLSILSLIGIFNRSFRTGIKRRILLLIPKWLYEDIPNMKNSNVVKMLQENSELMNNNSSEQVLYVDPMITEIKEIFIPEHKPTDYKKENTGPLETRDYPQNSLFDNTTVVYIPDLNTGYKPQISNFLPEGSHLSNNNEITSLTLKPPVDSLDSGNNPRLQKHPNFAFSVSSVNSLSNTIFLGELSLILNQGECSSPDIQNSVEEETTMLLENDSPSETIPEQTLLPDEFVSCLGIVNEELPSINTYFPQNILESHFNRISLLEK

[4] = simulated intestinal fluid (SIF) with porcine pancreatin
[5] = simulated gastric fluid (SGF) with porcine pepsin
[6] = simulated gastric fluid (SGF) with porcine pepsin, 4 h

Structure (SMILES) | remaining at 1 h, 10 μM [1, 4] [%] | remaining at 4 h, 10 μM [1, 4] [%] | remaining at 1 h, 10 μM [2, 5] [%] | remaining at 4 h, 10 μM [2, 6] [%] | also measured
CC(=O)N[C@@H](CC(=O)O)C(=O)N[C@H]1CCC(=O)NCCCC[C@@H](C(=O)NCC(N)=O)NC(=O)[C@](C)(CC(C)C)NC(=O)[C@H](Cc2ccc3ccccc3c2)NC(=O)[C@H](Cc2c[nH]c3ccccc23)NC(=O)[C@@H]2CSCC(=O)CSC[C@H](NC(=O)[C@H](CO)NC1=O)C(=O)N[C@@H](Cc1c[nH]c3ccccc13)C(=O)N[C@@H](CCC(N)=O)C(=O)N2 [Compound 60, [Ac]-DE(1c)SC(2a)WQC(2a)W[2-Nal][2-Me-Leu]K(1c)G-[NH2]] (Ac-DESCWQCW[2Nal][αMeL]KG-NH2; lactam 2-11; linker 4-7 via CH2COCH2) | 69 | 12 | 7 | 0 | 
CC[C@H](C)[C@@H]1NC(=O)Cc2ccc(cc2)CNC(=O)CC[C@@H](C(=O)N[C@@H](CCN)C(=O)N[C@@](C)(Cc2cccnc2)C(N)=O)NC(=O)[C@](C)(C(C)C)NC(=O)[C@H](Cc2ccc(C)c(C)c2)NC(=O)[C@H](Cc2ccc(Cl)cc2)NC(=O)[C@@H]2CCNC(=O)CC[C@H](NC1=O)C(=O)N[C@@H](Cc1c[nH]c3ccccc13)C(=O)N[C@@H](CCC(N)=O)C(=O)N2 [Compound 171, [4-Aminomethyl-phenylacetyl](1c)*IE(2c)WQ[Dab](2c)[F(4-Cl)][F(3,4-Me)][2-Me-Val]E(1c)[Dab][2-Me-3-(3-Pyridyl)-Ala]-[NH2]] ([X1]IEWQ[Dab][Phe(4-Cl)][Phe(3,4-Me2)][αMeV]E[Dab][αMeAla(3-pyridyl)]-NH2; lactam 3-6, N-10) |  | 68 |  | 75 | 
CC(C)C[C@]1(C)NC(=O)[C@H](Cc2ccc3ccccc3c2)NC(=O)[C@H](Cc2ccc(OCCN)cc2)NC(=O)[C@@H]2CSCC(=O)CSC[C@H](NC(=O)[C@H](CO)NC(=O)c3cccc(c3)CNC(=O)CC[C@@H](C(=O)N[C@@](C)(CCCNC(=N)N)C(N)=O)NC1=O)C(=O)N[C@@H](Cc1c[nH]c3ccccc13)C(=O)N[C@@H](CCC(N)=O)C(=O)N2 [Compound 42, [(3-Aminomethyl)benzoyl](1c)*SC(2a)WQC(2a)[Y(2-aminoethoxy)][2-Nal][2-Me-Leu]E(1c)[2-Me-Arg]-[NH2]] ([3Amb]SCWQC[AEF][2Nal][αMeL]E[αMeR]-NH2; linker 3-6 via CH2COCH2; lactam N-10) |  |  | 90 |  | Ki [3]: 2.76 nM
CC(C)C[C@]1(C)NC(=O)[C@H](Cc2ccc3ccccc3c2)NC(=O)[C@H](Cc2ccccc2)NC(=O)[C@@H]2CCNC(=O)CC[C@H](NC(=O)[C@H](CO)NC(=O)Cc3ccc(cc3)CNC(=O)CC[C@@H](C(=O)N[C@@H](CCN)C(N)=O)NC1=O)C(=O)N[C@@H](Cc1c[nH]c3ccccc13)C(=O)N[C@@H](CCC(N)=O)C(=O)N2 [Compound 130, [4-Aminomethyl-phenylacetyl](1c)*SE(2c)WQ[Dab](2c)F[2-Nal][2-Me-Leu]E(1c)[Dab]-[NH2]] ([X1]SEWQ[Dab]F[2Nal][αMeL]E[Dab]-NH2; lactam 3-6, N-10) | 1 | 0 | 59 | 14 | 
CC(=O)N[C@@H](CC(=O)O)C(=O)N[C@H]1CCC(=O)NCCCC[C@@H](C(=O)N[C@@H](CCCNC(=N)N)C(N)=O)NC(=O)[C@](C)(CC(C)C)NC(=O)[C@H](Cc2ccc3ccccc3c2)NC(=O)[C@H](Cc2c[nH]c3ccccc23)NC(=O)[C@@H]2CSCC(=O)CSC[C@H](NC(=O)[C@H]([C@@H](C)O)NC1=O)C(=O)N[C@@H](Cc1c[nH]c3ccccc13)C(=O)N[C@@H](CCC(N)=O)C(=O)N2 [Compound 57, [Ac]-DE(1c)TC(2a)WQC(2a)W[2-Nal][2-Me-Leu]K(1c)R-[NH2]] (Ac-DETCWQCW[2Nal][αMeL]KR-NH2; lactam 2-11; linker 4-7 via CH2COCH2) | 7 | 0 | 21 | 1 | 
CC[C@H](C)[C@@H]1NC(=O)Cc2ccc(cc2)CNC(=O)CC[C@@H](C(=O)N[C@@H](CCN)C(=O)N[C@@](C)(Cc2cccnc2)C(N)=O)NC(=O)[C@](C)(C(C)C)NC(=O)[C@H](Cc2ccc(C)c(C)c2)NC(=O)[C@](C)(Cc2ccc(F)cc2)NC(=O)[C@@H]2CCNC(=O)CC[C@H](NC1=O)C(=O)N[C@@H](Cc1c[nH]c3ccccc13)C(=O)N[C@@H](CCC(N)=O)C(=O)N2 [Compound 169, [4-Aminomethyl-phenylacetyl](1c)*IE(2c)WQ[Dab](2c)[2-Me-F(4-F)][F(3,4-Me)][2-Me-Val]E(1c)[Dab][2-Me-3-(3-Pyridyl)-Ala]-[NH2]] ([X1]IEWQ[Dab][X10][Phe(3,4-Me2)][αMeV]E[Dab][αMeAla(3-pyridyl)]-NH2; lactam 3-6, N-10) |  | 72 |  |  | SGF (% remaining 4 h) ([2]; 4 h): 121%
CC(C)C[C@]1(C)NC(=O)[C@H](Cc2c[nH]c3ccccc23)NC(=O)[C@H](Cc2c[nH]c3ccccc23)NC(=O)[C@@H]2CSCC(=O)CSC[C@H](NC(=O)[C@H](CO)NC(=O)[C@@H](NC(=O)[C@@H](N)CC(=O)O)CSCC(=O)CSC[C@@H](C(=O)N[C@@H](CCCNC(=N)N)C(N)=O)NC1=O)C(=O)N[C@@H](Cc1c[nH]c3ccccc13)C(=O)N[C@@H](CCC(N)=O)C(=O)N2 [Compound 1, H-DC(1a)SC(2a)WQC(2a)WW[2-Me-Leu]C(1a)R-[NH2]] |  |  |  |  | remaining at 1 h, 10 μM [1]: 0%; remaining at 4 h, 10 μM [1]: 0%; remaining at 1 h, 10 μM [2]: 86%; remaining at 4 h, 10 μM ([2]; 4 h): 68%
CC[C@H](C)[C@@H]1NC(=O)Cc2ccc(cc2)CNC(=O)CC[C@@H](C(=O)N[C@@H](CCN)C(=O)N[C@@](C)(Cc2cccnc2)C(N)=O)NC(=O)[C@](C)(C(C)C)NC(=O)[C@H](Cc2ccc(C)c(C)c2)NC(=O)[C@](C)(Cc2c[nH]c3ccccc23)NC(=O)[C@@H]2CCNC(=O)CC[C@H](NC1=O)C(=O)N[C@@H](Cc1c[nH]c3ccccc13)C(=O)N[C@@H](CCC(N)=O)C(=O)N2 [Compound 172, [4-Aminomethyl-phenylacetyl](1c)*IE(2c)WQ[Dab](2c)[alpha-Me-Trp][F(3,4-Me)][2-Me-Val]E(1c)[Dab][2-Me-3-(3-Pyridyl)-Ala]-[NH2]] ([X1]IEWQ[Dab][αMeW][Phe(3,4-Me2)][αMeV]E[Dab][αMeAla(3-pyridyl)]-NH2; lactam 3-6, N-10) |  | 70 |  | 99 | 
CC(=O)N[C@H]1CCCCNC(=O)CC[C@@H](C(=O)N[C@@H](CCCNC(=N)N)C(N)=O)NC(=O)[C@H](CC(C)C)NC(=O)[C@H](Cc2ccc3ccccc3c2)NC(=O)[C@H](Cc2c[nH]c3ccccc23)NC(=O)[C@@H]2CSCC(=O)CSC[C@H](NC(=O)[C@H](CO)NC1=O)C(=O)N[C@@H](Cc1cn(C)c3ccccc13)C(=O)N[C@@H](CCC(N)=O)C(=O)N2 [Compound 27, [Ac]-K(1c)SC(2a)[1-Me-Trp]QC(2a)W[2-Nal]LE(1c)R-[NH2]] (Ac-KSC[Trp(1-Me)]QCW[2Nal]LER-NH2; lactam 1-10; linker 3-6 via CH2COCH2) | 0 | 0 | 0 | 0 | 
